Key:
Format in all cases: in vivo
hairless SKH1-E mice [1] = test: Skin irritation on dorsal skin (erythema, desquamation, lesions/abrasion), visual score; conditions: for Mean skin irritation score: scale of 0-4
Experimental: (§1) UAB30, 4Me-UAB30 and UAB111 at 0.1% and 0.3%, tazarotene at 0.1% and vehicle were applied topically on approximately 8 cm2 (2×4 cm) of the dorsal skin (100 μL) and on the right ear (20 μL).
(§2) The test compounds were UAB30, 4Me-UAB30 and UAB111. Tazarotene (0.1% cream) was purchased by Ricerca Taiwan Ltd. The three compounds at 0.1% and 0.3%, Tazarotene (0.1% cream) and vehicle (70% ethanol/30% propylene glycol) were each administered topically on the back (100 μL) and on the right ear (20 μL) once daily for two weeks.
(§3) Female SKH1-E hairless mice (Crl:SKH1-Hrhr) weighing 22±2 g were used. The animals were divided into groups of 5 each. Once a day, 100 μl of vehicle, tazarotene, and test articles were applied on the back with a micropipette and smeared evenly with gloved finger on approximately 8 cm2 (2×4 cm) of the dorsal skin; 20 μl was applied to the right ear. The tested animals were treated for two consecutive weeks. Body weight was monitored twice a week.
Erythema, desquamation (skin flaking), and skin lesions/abrasion on dorsal skin were assessed visually in individual animals at the end of a 2-week treatment and scored on a scale of 0 to 4+, with 4+being maximal. • 0: Normal • 1+: Mild erythema • 2+: Moderate erythema • 3+: Severe erythema/Desquamation • 4+: Lesions/abrasion.

hairless SKH1-E mice [2] = test: Ear myeloperoxidase (MPO) by mouse MPO ELISA kit, measure of neutrophil infiltrates; conditions: harvested day 15
Experimental: as §1, §2, §3
(§4) For histological evaluation, the dorsal skin was dissected and stretched to the natural size on the filter. Punch biopsies (ED 8 mm) were obtained, fixed in 10% buffered formalin, and embedded in paraffin. Five micro thick sections were cut, stained with H&E, and a representative section of each biopsy was selected for histological evaluation. Right ear was harvested on day 15 for measurements of myeloperoxidase activity by mouse MPO ELISA kit, a measure of neutrophil infiltrates.

hairless SKH1-E mice [3] = test: Epidermal hyperplasia on dorsal skin (marker of retinoid activity), 14-day topical application; conditions: for epidermal hyperplasia grading, average: dorsal skin, scale of 0=none to 5=marked
Experimental: as §1, §2, §3
(§5) Epidermal hyperplasia on the dorsal skin was used as a marker of retinoid activity. For histological evaluation, mice were sacrificed on day 15. The dorsal skin was dissected and stretched to the natural size on the filter. Punch biopsies (ED 8 mm) were obtained, fixed in 10% buffered formalin, and embedded in paraffin. Five micro thick sections were cut, stained with H&E, and a representative section of each biopsy was selected for histological evaluation.
as §4

hairless SKH1-E mice [4] = test: Histopathology of dorsal skin: hyperkeratosis/serocellular crust, utriculus formation, sebaceous gland hyperplasia; conditions: of 5 mice per group
Experimental: as §3, §5, §4

[5] = 0.1% topical 20 μL on right ear for 14 days
[6] = 0.1% topical once daily for 14 days

Row | Structure (SMILES) | Mean skin irritation score (hairless SKH1-E mice [1]; 0.1% topical for 14 days) | ear Myeloperoxidase (MPO), marker of neutrophil infiltration (hairless SKH1-E mice [2]; [5]) | epidermal hyperplasia grading, average (hairless SKH1-E mice [3]; [6]) | Hyperkeratosis and/or serocellular crust, number of mice affected (hairless SKH1-E mice [4]; 0.1% topical for 14 days) | Hyperkeratosis and/or serocellular crust, number of mice affected (hairless SKH1-E mice [4]; 0.3% topical for 14 days) | skin irritation, observation in words (hairless SKH1-E mice [1]; 0.1% topical for 14 days, groups of 5) | Mean skin irritation score (hairless SKH1-E mice [1]; 0.3% topical for 14 days) | ear Myeloperoxidase (MPO), marker of neutrophil infiltration (hairless SKH1-E mice [2]; 0.3% topical 20 μL on right ear for 14 days) | epidermal hyperplasia grading, average (hairless SKH1-E mice [3]; 0.3% topical once daily for 14 days) | incidence of epidermal hyperplasia compared to 0.1% Tazarotene (hairless SKH1-E mice [3]; 14-day topical, histopathology, concentration not specified (0.1% and 0.3% groups))
1 | CCOC(=O)c1ccc(C#Cc2ccc3c(c2)C(C)(C)CCS3)nc1 [Tazarotene, reference compound] | 3 | marked increase | 2 | – | – | – | – | – | – | –
2 | CC(=C/C=C/C(C)=C/C(=O)O)/C=C1\CCCc2ccccc21 [UAB30, (2E,4E,6E,8E)-8-(3′,4′-Dihydro-1′(2′H)-naphthalen-1′-ylidene)3,7-dimethyl-2,4,6-octatrienoic acid] | – | no effect | 1.8 | 1 | not reported | did not cause any irritation | 1 | no effect | 2 | comparable incidence
